The record followed here is patent US6326372A, “Lactam and cyclic urea derivatives useful as alpha 1a adrenoceptor antagonists” (Merck & Co., Inc., priority 2000, dated 2001).

Where a name gives a salt, the structure may show the parent alone.

In this test the test system is alpha 1a receptors versus alpha 1b and alpha 1d receptors. Put plainly: Selective Binding Assays: binding to alpha 1a versus alpha 1b and alpha 1d receptors ([125I]-HEAT competition binding). Also noted: species or system human. The settings on record: alpha 1a versus both alpha 1b and alpha 1d; at least about. The procedure: Membranes prepared from the stably transfected human alpha 1a cell line (ATCC CRL 11140) were used to identify compounds that bind to the human alpha 1a adrenergic receptor. These competition binding reactions (total volume=200 μl) contained 50 mM Tris-HCl pH. 7.4, 5 mM EDTA, 150 mM NaCl, 100 pM [^125 I]-HEAT, membranes prepared from the alpha 1a cell line and increasing amounts of unlabeled ligand. Reactions were incubated at room temperature for one hour with shaking. Reactions were filtered onto Whatman GF/C glass fiber filters with a Inotec 96 well cell harvester. Filters were washed three times with ice cold buffer and bound radioactivity was determined (Ki).
Membranes prepared from stably transfected human alpha 1d and alpha 1b cell lines (ATCC CRL 11138 and CRL 11139, respectively) were used to identify compounds that selectively bind to the human alpha 1a adrenergic receptor. These competition binding reactions (total volume=200 μl) contained 50 mM Tris-HCl pH. 7.4, 5 mM EDTA, 150 mM NaCl, 100 pM [^125 I]-HEAT, membranes prepared from cell lines transfected with the respective alpha 1 subtype expression plasmid and increasing amounts of unlabeled ligand. Reactions were incubated at room temperature for one hour with shaking. Reactions were filtered onto Whatman GF/C glass fiber filters with a Inotec 96 well cell harvester. Filters were washed three times with ice cold buffer and bound radioactivity was determined (Ki).

Turning to `O=C1CCCC(c2ccc(F)c(F)c2)N1C(=O)NCCCN1CCC(c2ccc(F)cc2)CC1` (racemic) [Example 4, (6RS)-, 6(R)-, and 6(S)-1-[3-[4-(4-Fluorophenyl)piperidin-1-yl]-propylaminocarbonyl]-6-(3,4-difluorophenyl)piperidin-2-one Hydrochloride], the “fold more selective in binding to alpha 1a receptors versus binding to the alpha 1b and alpha 1d receptors” value (shortened to “fold more selective in binding”) was “at least 10 fold”.

`N#Cc1ccccc1C1(C#N)CCN(CCCNC(=O)N2C(=O)CCCC2c2ccc(F)c(F)c2)CC1` (racemic) [Example 5, (6RS)-, 6(R)- and 6(S)-1-[3-[4-(2-Cyanophenyl)-4-cyanopiperidin-1-yl]-propylaminocarbonyl]-6-(3,4-difluorophenyl)piperidin-2-one Hydrochloride]: the “fold more selective in binding” value is listed as “at least 10 fold”.

As to `O=C(NCCCN1CCC(c2ccc(F)cc2)CC1)N1C(=O)NC[C@@H](C2CC2)[C@@H]1c1ccc(F)c(F)c1` (relative stereo) [Example 21 (Isomer A), (4R,5S)-, (4S,5S)-, (4R,5R)-, and (4S,5R)-5-Cyclopropyl-4-(3,4-difluorophenyl)-3-[(4'-(4-fluorophenyl)piperidin-1'-yl)propyl]aminocarbonyltetrahydropyrimidin-2-one Hydrochlorides], the “fold more selective in binding” value is “at least 10 fold”.

Consider `O=C(NCCCN1CCC(c2ccc(F)cc2)CC1)N1C(=O)NC[C@@H](C2CC2)[C@@H]1c1ccc(F)c(F)c1` (relative stereo) [Example 21 (Isomer C), (4R,5S)-, (4S,5S)-, (4R,5R)-, and (4S,5R)-5-Cyclopropyl-4-(3,4-difluorophenyl)-3-[(4'-(4-fluorophenyl)piperidin-1'-yl)propyl]aminocarbonyltetrahydropyrimidin-2-one Hydrochlorides], for which the “fold more selective in binding” value is “at least 10 fold”.

On to `O=C(NCCCN1CCC(c2ccc(F)cc2)CC1)N1C(=O)NC[C@H](C2CC2)[C@@H]1c1ccc(F)c(F)c1` (relative stereo) [Example 21 (Isomer D), (4R,5S)-, (4S,5S)-, (4R,5R)-, and (4S,5R)-5-Cyclopropyl-4-(3,4-difluorophenyl)-3-[(4'-(4-fluorophenyl)piperidin-1'-yl)propyl]aminocarbonyltetrahydropyrimidin-2-one Hydrochlorides], for which the “fold more selective in binding” value is “at least 10 fold”.

As to `CC1(C)CCC(c2ccc(F)c(F)c2)N(C(=O)NCCCN2CCC(c3ccc(F)cc3)CC2)C1=O.Cl` (single isomer, unassigned) [Example 1], the “fold more selective in binding” value is “at least 10 fold”.

With `CC1(C)CC(=O)N(C(=O)NCCCN2CCC(c3ccc(F)cc3)CC2)C(c2ccc(F)c(F)c2)C1.Cl` (single isomer, unassigned) [Example 2 (Enantiomer A)], the “fold more selective in binding” value is on record as “at least 10 fold”.

Take `CC1CC(=O)N(C(=O)NCCCN2CCC(c3ccc(F)cc3)CC2)C(c2ccc(F)c(F)c2)C1` (single isomer, unassigned) [Example 3 (Isomer A), Hydrochloride]: the “fold more selective in binding” value is on record as “at least 10 fold”.

Turning to `CC1CC(=O)N(C(=O)NCCCN2CCC(c3ccc(F)cc3)CC2)C(c2ccc(F)c(F)c2)C1` (single isomer, unassigned) [Example 3 (Isomer C), Hydrochloride], the “fold more selective in binding” value was “at least 10 fold”.

Turning to `N#CC1(c2ccc(F)cc2)CCN(CCCNC(=O)N2C(=O)CCCC2c2ccc(F)c(F)c2)CC1` (single isomer, unassigned) [Example 6 (Enantiomer A), Hydrochloride], the “fold more selective in binding” value is on record as “at least 10 fold”.

With `O=C1CCCC(c2ccc(F)c(F)c2)N1C(=O)NCCCN1CCC2(CCc3ccccc32)CC1` (single isomer, unassigned) [Example 7 (Enantiomer A), Hydrochloride], the “fold more selective in binding” value is given as “at least 10 fold”.

Turning to `O=C1CCCC(c2ccc(F)c(F)c2)N1C(=O)NCCCN1CCC(c2ccccn2)CC1` (single isomer, unassigned) [Example 8, Dihydrochloride], the “fold more selective in binding” value was “at least 10 fold”.

On to `N#Cc1cc(F)ccc1C1CCN(CCCNC(=O)N2C(=O)CCCC2c2ccc(F)c(F)c2)CC1` (single isomer, unassigned) [Example 9, hydrochloride], for which the “fold more selective in binding” value is given as “at least 10 fold”.

`O=C1CCCC(c2ccc(F)c(F)c2)N1C(=O)N[C@@H]1CCN([C@H]2CC[C@H](c3ccccn3)CC2)C1` (single isomer, unassigned) [Example 10 (Enantiomer A), Dihydrochloride]: the “fold more selective in binding” value is on record as “at least 10 fold”.

Take `C[C@H](c1ccccc1)N1CCC(c2ccc(F)c(F)c2)N(C(=O)NCCCN2CCC(c3ccc(F)cc3)CC2)C1=O` (single isomer, unassigned) [Example 14 (Step 8, Diastereomer A), Hydrochloride]: the “fold more selective in binding” value is reported as “at least 10 fold”.

Regarding `O=C(NCCCN1CCC(c2ccc(F)cc2)CC1)N1C(=O)NCCC1c1ccc(F)c(F)c1` (single isomer, unassigned) [Example 14 (Step 9, Enantiomer A), Hydrochloride], the “fold more selective in binding” value is on record as “at least 10 fold”.

With `C[C@H](c1ccccc1)N1CC(C)(C)C(c2ccc(F)c(F)c2)N(C(=O)NCCCN2CCC(c3ccc(F)cc3)CC2)C1=O` (single isomer, unassigned) [Example 18 (Step 2, Diastereomer A)], the “fold more selective in binding” value is “at least 10 fold”.

For `CC1(C)CNC(=O)N(C(=O)NCCCN2CCC(c3ccc(F)cc3)CC2)C1c1ccc(F)c(F)c1` (single isomer, unassigned) [Example 18 (Step 3, Enantiomer A), Hydrochloride], the “fold more selective in binding” value is listed as “at least 10 fold”.

As for `CC1(C)CNC(=O)N(C(=O)NCCCN2CCC(c3ccc(F)cc3)CC2)C1c1ccc(F)c(F)c1` (single isomer, unassigned) [Example 18 (Step 3, Enantiomer B), Hydrochloride], the “fold more selective in binding” value is listed as “at least 10 fold”.

On to `O=C(NCCCN1CCC(c2ccc(F)cc2)CC1)N1C(=O)NCC2(CCCCC2)C1c1ccc(F)c(F)c1` (single isomer, unassigned) [Example 20 (Isomer B), (4'R)- and (4'S)-Spirocyclohexane-[1,5']-{4-(3,4-difluorophenyl)-3-[(4'-(4-fluorophenyl)piperidin-1'-yl)propyl]aminocarbonyl}tetrahydropyrimidin-2-one Hydrochloride], for which the “fold more selective in binding” value is “at least 10 fold”.

Consider `CC1CNC(=O)N(C(=O)NCCCN2CCC(c3ccc(F)cc3)CC2)C1c1ccc(F)c(F)c1` (single isomer, unassigned) [Example 22 (Isomer B), Hydrochloride], for which the “fold more selective in binding” value is recorded as “at least 10 fold”.
